Assay results as given in ChEMBL document CHEMBL4418493, “N-hydroxyformamide compounds and compositions comprising them for use as BMP1, TLL1 and/or TLL2 inhibitors” (2018).

Tests used:
[1] = Reduction in PICP levels in human cardiac fibroblasts incubated for 24 to 48 hrs by ELISA; assay type: functional
[2] = Drug metabolism in heparinized pooled human plasma at pH 7.5 assessed as formation of (S)-2-(2-ethoxy-4-(5-((((R)-2-((R)-1-(N-hydroxyformamido)propyl)heptanamido)methyl) carbamoyl)furan-2-yl)benzamido)succinic acid at 100 to 2000 ng/ml incubated up to 4 or 24 hrs by LC-MS/MS analysis; assay type: ADME, cell-free; settings: pH 7.5, 24 h
[3] = Drug metabolism in heparinized pooled human plasma at pH 7.5 assessed as formation of (S)-2-(2-(carboxymethoxy)-4-(5-((((R)-2-((R)-1-(N-hydroxyformamido)propyl)heptanamido)methyl)carbamoyl)furan-2-yl)benzamido)succinic acid at 100 to 2000 ng/ml incubated up to 4 or 24 hrs by LC-MS/MS analysis; assay type: ADME, cell-free; settings: pH 7.5, 24 h

Structure (SMILES)	Drug metabolism [2]	Drug metabolism [3]	IC50 [1] [µM]
CCCCC[C@@H](C(=O)NCNC(=O)c1ccc(-c2ccc(C(=O)N[C@@H](CC(=O)O)C(=O)O)c(OCC)c2)o1)[C@@H](CC)N(C=O)OC(=O)c1ccc2c(c1)OCCO2.N.N	Metabolite_Detected	–	< 3.98
CCCCC[C@@H](C(=O)NCNC(=O)c1ccc(-c2ccc(C(=O)N[C@@H](CC(=O)O)C(=O)O)c(OCC)c2)o1)[C@@H](CC)N(C=O)OC(=O)C(CC)CC	Metabolite_Detected	–	< 3.98
CCCCC[C@@H](C(=O)NCNC(=O)c1ccc(-c2ccc(C(=O)N[C@@H](CC(=O)O)C(=O)O)c(OCC)c2)o1)[C@@H](CC)N(C=O)OC(=O)c1ccc(OC)cc1C(C)C	Metabolite_Detected	–	–
CCCCC[C@@H](C(=O)NCNC(=O)c1ccc(-c2ccc(C(=O)N[C@@H](CC(=O)O)C(=O)OCc3oc(=O)oc3C)c(OCC)c2)o1)[C@@H](CC)N(O)C=O	Metabolite_Detected	–	–
CCCCC[C@@H](C(=O)NCNC(=O)c1ccc(-c2ccc(C(=O)N[C@@H](CC(=O)O)C(=O)O)c(OCC)c2)o1)[C@@H](CC)N(C=O)OC(=O)c1ccc(CN2CCOCC2)cc1C	Metabolite_Detected	–	< 3.98
CCCCC[C@@H](C(=O)NCNC(=O)c1ccc(-c2ccc(C(=O)N[C@@H](CC(=O)O)C(=O)OCOC(=O)C(C)C)c(OCC)c2)o1)[C@@H](CC)N(O)C=O	Metabolite_Detected	–	< 3.98
CCCCC[C@@H](C(=O)NCNC(=O)c1ccc(-c2ccc(C(=O)N[C@@H](CC(=O)O)C(=O)O)c(OCC)c2)o1)[C@@H](CC)N(C=O)OC(=O)c1ccc(OC)cc1C.N.N	Metabolite_Detected	–	–
CCCCC[C@@H](C(=O)NCNC(=O)c1ccc(-c2ccc(C(=O)N[C@@H](CC(=O)O)C(=O)O)c(OCC)c2)o1)[C@@H](CC)N(C=O)OC(=O)c1ccc(N2CCCC2=O)cc1.N.N	Metabolite_Detected	–	< 3.98
CCCCC[C@@H](C(=O)NCNC(=O)c1ccc(-c2ccc(C(=O)N[C@@H](CC(=O)O)C(=O)O)c(OCC)c2)o1)[C@@H](CC)N(C=O)OC(=O)c1c(C)cccc1OP(=O)(O)O	Metabolite_Detected	–	–
CCCCC[C@@H](C(=O)NCNC(=O)c1ccc(-c2ccc(C(=O)N[C@@H](CC(=O)O)C(=O)O)c(OCC)c2)o1)[C@@H](CC)N(C=O)OC(=O)c1ccc(-n2cccn2)cc1	Metabolite_Detected	–	< 3.98
CCCCC[C@@H](C(=O)NCNC(=O)c1ccc(-c2ccc(C(=O)N[C@@H](CC(=O)O)C(=O)O)c(OCC)c2)o1)[C@@H](CC)N(C=O)OC(=O)c1ccc(OCCOCCO)cc1	Metabolite_Detected	–	< 3.98
CCCCC[C@@H](C(=O)NCNC(=O)c1ccc(-c2ccc(C(=O)N[C@@H](CC(=O)O)C(=O)O)c(OCC)c2)o1)[C@@H](CC)N(C=O)OC(=O)NC(C)C	Metabolite_Detected	–	< 3.98
CCCCC[C@@H](C(=O)NCNC(=O)c1ccc(-c2ccc(C(=O)N[C@@H](CC(=O)O)C(=O)O)c(OCC)c2)o1)[C@@H](CC)N(C=O)OC(=O)C1CCNCC1.O=C(O)C(F)(F)F	Metabolite_Detected	–	< 3.98
CCCCC[C@@H](C(=O)NCNC(=O)c1ccc(-c2ccc(C(=O)N[C@@H](CC(=O)O)C(=O)O)c(OCC)c2)o1)[C@@H](CC)N(C=O)OC(=O)c1ccc2c(c1)N(C)CCO2.N.N	Metabolite_Detected	–	< 3.98
CCCCC[C@@H](C(=O)NCNC(=O)c1ccc(-c2ccc(C(=O)N[C@@H](CC(=O)O)C(=O)O)c(OCC)c2)o1)[C@@H](CC)N(C=O)OC(=O)c1ccc(F)cc1C(C)C	Metabolite_Detected	–	< 3.98
CCCCC[C@@H](C(=O)NCNC(=O)c1ccc(-c2ccc(C(=O)N[C@@H](CC(=O)O)C(=O)O)c(OCC)c2)o1)[C@@H](CC)N(C=O)OC(=O)c1ccc(OC)cc1Br	Metabolite_Detected	–	–
CCCCC[C@@H](C(=O)NCNC(=O)c1ccc(-c2ccc(C(=O)N[C@@H](CC(=O)O)C(=O)O)c(OCC)c2)o1)[C@@H](CC)N(C=O)OC(=O)c1ccc(-n2ccnc2)cc1	Metabolite_Detected	–	< 3.98
CCCCC[C@@H](C(=O)NCNC(=O)c1ccc(-c2ccc(C(=O)N[C@@H](CC(=O)O)C(=O)Oc3ccccc3)c(OCC)c2)o1)[C@@H](CC)N(O)C=O	Metabolite_Detected	–	–
CCCCC[C@@H](C(=O)NCNC(=O)c1ccc(-c2ccc(C(=O)N[C@@H](CC(=O)O)C(=O)O)c(OCC)c2)o1)[C@@H](CC)N(C=O)OCOC(=O)C(C)(C)C	Metabolite_Detected	–	< 3.98
CCCCC[C@@H](C(=O)NCNC(=O)c1ccc(-c2ccc(C(=O)N[C@@H](CC(=O)O)C(=O)O)c(OCC)c2)o1)[C@@H](CC)N(C=O)OC(=O)c1ccc(CN2CCOCC2)cc1	Metabolite_Detected	–	< 3.98
CCCCC[C@@H](C(=O)NCNC(=O)c1ccc(-c2ccc(C(=O)N[C@@H](CC(=O)O)C(=O)O)c(OCC)c2)o1)[C@@H](CC)N(C=O)OC(=O)c1ccc(-n2cccc2)cc1.N.N	Metabolite_Detected	–	–
CCCCC[C@@H](C(=O)NCNC(=O)c1ccc(-c2ccc(C(=O)N[C@@H](CC(=O)O)C(=O)O)c(OCC)c2)o1)[C@@H](CC)N(C=O)OC(=O)c1ccc(OC)cc1Cl	Metabolite_Detected	–	–

Second part, led by results:

Drug metabolism [2]	Drug metabolism [3]	Structure (SMILES)	IC50 [1] [µM]
Metabolite_Detected	–	CCCCC[C@@H](C(=O)NCNC(=O)c1ccc(-c2ccc(C(=O)N[C@@H](CC(=O)O)C(=O)O)c(OCC)c2)o1)[C@@H](CC)N(C=O)OC(=O)c1ccc(OC)cc1	< 3.98
Metabolite_Detected	–	CCCCC[C@@H](C(=O)NCNC(=O)c1ccc(-c2ccc(C(=O)N[C@@H](CC(=O)O)C(=O)O)c(OCC)c2)o1)[C@@H](CC)N(C=O)OC(=O)c1cccc(N(C)C)c1	–
Metabolite_Detected	–	CCCCC[C@@H](C(=O)NCNC(=O)c1ccc(-c2ccc(C(=O)N[C@@H](CC(=O)O)C(=O)O)c(OCC)c2)o1)[C@@H](CC)N(C=O)OC(=O)c1c(C)cccc1F	< 3.98
Metabolite_Detected	–	CCCCC[C@@H](C(=O)NCNC(=O)c1ccc(-c2ccc(C(=O)N[C@@H](CC(=O)O)C(=O)O)c(OCC)c2)o1)[C@@H](CC)N(C=O)OC(=O)c1cccc(NC)c1	–
Metabolite_Detected	–	CCCCC[C@@H](C(=O)NCNC(=O)c1ccc(-c2ccc(C(=O)N[C@@H](CC(=O)O)C(=O)O)c(OCC)c2)o1)[C@@H](CC)N(C=O)OC(=O)c1ccc(NC)cc1	–
Metabolite_Detected	–	CCCCC[C@@H](C(=O)NCNC(=O)c1ccc(-c2ccc(C(=O)N[C@@H](CC(=O)O)C(=O)O)c(OCC)c2)o1)[C@@H](CC)N(C=O)OC(=O)c1ccc(N)cc1	–
Metabolite_Detected	–	CCCCC[C@@H](C(=O)NCNC(=O)c1ccc(-c2ccc(C(=O)N[C@@H](CC(=O)O)C(=O)O)c(OCC)c2)o1)[C@@H](CC)N(C=O)OC(=O)c1ccc([N+](=O)[O-])cc1	< 3.98
Metabolite_Detected	–	CCCCC[C@@H](C(=O)NCNC(=O)c1ccc(-c2ccc(C(=O)N[C@@H](CC(=O)O)C(=O)O)c(OCC)c2)o1)[C@@H](CC)N(C=O)OC(=O)c1ccc(C(F)(F)F)cc1	< 3.98
–	Metabolite_Detected	CCCCC[C@@H](C(=O)NCNC(=O)c1ccc(-c2ccc(C(=O)N[C@@H](CC(=O)O)C(=O)O)c(OCC(=O)O)c2)o1)[C@@H](CC)N(C=O)OC(=O)NC	–
Metabolite_Detected	–	CCCCC[C@@H](C(=O)NCNC(=O)c1ccc(-c2ccc(C(=O)N[C@@H](CC(=O)O)C(=O)O)c(OCC)c2)o1)[C@@H](CC)N(C=O)OC(=O)c1ccc([N+](=O)[O-])cc1C	–
Metabolite_Detected	–	CCCCC[C@@H](C(=O)NCNC(=O)c1ccc(-c2ccc(C(=O)N[C@@H](CC(=O)O)C(=O)O)c(OCC)c2)o1)[C@@H](CC)N(C=O)OC(=O)c1ccc(CN)cc1	–
Metabolite_Detected	–	CCCCC[C@@H](C(=O)NCNC(=O)c1ccc(-c2ccc(C(=O)N[C@@H](CC(=O)O)C(=O)O)c(OCC)c2)o1)[C@@H](CC)N(C=O)OC(=O)c1ccc(OC)c(OC)c1	< 3.98
–	Metabolite_Detected	CCCCC[C@@H](C(=O)NCNC(=O)c1ccc(-c2ccc(C(=O)N[C@@H](CC(=O)O)C(=O)O)c(OCC(=O)O)c2)o1)[C@@H](CC)N(C=O)OC(=O)C1CC1C (some centres undefined)	–
Metabolite_Detected	–	CCCCC[C@@H](C(=O)NCNC(=O)c1ccc(-c2ccc(C(=O)N[C@@H](CC(=O)O)C(=O)O)c(OCC)c2)o1)[C@@H](CC)N(C=O)OC(=O)c1ccc(N(C)S(C)(=O)=O)cc1	< 3.98
Metabolite_Detected	–	CCCCC[C@@H](C(=O)NCNC(=O)c1ccc(-c2ccc(C(=O)N[C@@H](CC(=O)O)C(=O)O)c(OCC)c2)o1)[C@@H](CC)N(C=O)OC(=O)c1cccc(N)c1	–
Metabolite_Detected	–	CCCCC[C@@H](C(=O)NCNC(=O)c1ccc(-c2ccc(C(=O)N[C@@H](CC(=O)O)C(=O)O)c(OCC)c2)o1)[C@@H](CC)N(C=O)OC(=O)Nc1ccccc1	–
–	Metabolite_Detected	CCCCC[C@@H](C(=O)NCNC(=O)c1ccc(-c2ccc(C(=O)N[C@@H](CC(=O)O)C(=O)O)c(OCC(=O)O)c2)o1)[C@@H](CC)N(C=O)OC(=O)c1ccc(OC)cc1	–
Metabolite_Detected	–	CCCCC[C@@H](C(=O)NCNC(=O)c1ccc(-c2ccc(C(=O)N[C@@H](CC(=O)O)C(=O)O)c(OCC)c2)o1)[C@@H](CC)N(C=O)OC(=O)c1cccc(N2CCCC2)c1.N.N	< 3.98
–	Metabolite_Detected	CCCCC[C@@H](C(=O)NCNC(=O)c1ccc(-c2ccc(C(=O)N[C@@H](CC(=O)O)C(=O)O)c(OCC(=O)O)c2)o1)[C@@H](CC)N(C=O)OC(=O)c1cccc(C(=O)O)c1	–
Metabolite_Detected	–	CCCCC[C@@H](C(=O)NCNC(=O)c1ccc(-c2ccc(C(=O)N[C@@H](CC(=O)O)C(=O)O)c(OCC)c2)o1)[C@@H](CC)N(C=O)OC(=O)c1ccc(F)cc1C	< 3.98
